Laboratory results: US6274559A, “Liver protection or treatment agents comprising asiatic acid derivatives as the active component” (Dong Kook Pharmaceutical Co., Ltd., priority 1997, dated 2001)

Key:
[1] = system: liver cell (carbon tetrachloride-induced toxicity); assay: Protection effect against carbon tetrachloride-induced toxicity of liver cell (GPT activity, relative protection); type: cell-based, male Wister rats; details: 10 mM carbon tetrachloride, 1.5 h; for Relative liver cell protection at 5 µg/mL / Relative liver cell protection at 50 µg/mL: Rattus norvegicus
Experimental: (§1) As experimental animals, male Wister rats weighing between 150~200 g were used. All rats were fasted during 18~24 h, and then the isolation of liver cells was performed by using the two-step collagenase flow-through method [D. M. Crisp and C. I. Pogson, Biochem., 126, 1009 (1972)], which is a form that the Berry & Friend method [M. N. Berry and D. S. Friend, J. Cell, Biol., 43, 5006 (1969)] is a little modified.
(§2) These liver cells getting into toxicity induced by said methods were incubated separately in the incubation mediums containing said compounds of 5 μg/ml and 50 μg/ml. Then, withdrawing the incubation medium, the activity of glutamic pyruvic transaminase (GPT) was determined by the Reitman-Frankel method [S. Reitman and S. Frankel, Am, J. Cli. Pathol., 28, 56 (1957)]. The GPT value of healthy liver cell was defined as 100%, and that of liver cell getting into toxicity induced by said methods was defined as 0%. At the basis of said definition, the GPT values of liver cells recovered from galactosamine-induced toxicity by the compounds were converted into relative protections (%) to show the protection effect of liver cell against the toxicity by the compounds.
To investigate the protection effect of the compounds of the formula 1 of this invention against carbon tetrachloride-induced toxicity of liver cell, the following experiment was performed.
(§3) The experiment was performed in the same manner as in Experimental example 1, except that carbon tetrachloride was used by following method to induce liver cells to get into the toxicity.
(§4) The isolated liver cells were incubated in a normal incubation medium for 24 h, and then more incubated in 10 mM carbon tetrachloride-containing incubation medium for 1.5 h to induce liver cells to get into the toxicity of carbon tetrachloride [Y. Kiso, Y. Suzuki and H. Hikino, Planta. Med., 49, 222 (1983)].

[2] = system: liver cell (galactosamine-induced toxicity); assay: Protection effect against galactosamine-induced toxicity of liver cell (GPT activity, relative protection); type: cell-based, male Wister rats; details: 1.5 mM galactosamine, 14 h, healthy liver cell = 100%, toxicity = 0%; for Relative liver cell protection (%) at 5 µg/mL / Relative liver cell protection (%) at 50 µg/mL: Rattus norvegicus
Excerpt: To investigate the protection effect of the compounds of the formula 1 of this invention, i. e. 2-oxoasiatic acid, 2-methylasiatic acid, methyl 2α-acetoxyurs-12-en-23-al-3-on-28-oate, tetrahydropyranyl 3β,23-diacetoxyurs-12-en-28-oate, ethoxymethyl 2α-hydroxy-3β,23-isopropylidendioxyurs-12-en-28-oate, methyl 2,3-β-epoxy-12-en-23-carbomethoxyurs-28-oate, methyl 2,3-β-epoxy-12-en-23-benzamidours-28-oate, 1-ethoxyethyl asiatate and 2',3',4',6'-tetra-O-acetylglucosyl 2,3,23-tri-O-acetylurs-28-oate, against galactosamine-induced toxicity of liver cell, the following experiment was performed.
as §1
(§5) The isolated liver cells were incubated in a normal incubation medium for 1.5 h, and then more incubated in 1.5 mM galactosamine-containing incubation medium for 14 h to induce liver cells to get into the toxicity of galactosamine [Y. Kris, M. Tohkin and H. Hikino, J. Nat. Prod., 46, 841 (1983)].
as §2

[3] = system: liver cell (galactosamine-induced toxicity); assay: Concentration dependency of protection effect against galactosamine-induced toxicity of liver cell; type: cell-based, male Wister rats; details: for Relative liver cell protection (%) at 1 µM / Relative liver cell protection (%) at 10 µM / Relative liver cell protection (%) at 50 µM / Relative liver cell protection (%) at 100 µM / Relative liver cell protection (%) at 200 µM: Rattus norvegicus
Experimental: as §1, §5, §2
To investigate concentration dependency of the protection effect of the compounds of the formula 1 of this invention, i. e. 2-oxoasiatic acid, 2-methylasiatic acid and methyl 2α-acetoxyurs-12-en-23-al-3-on-28-oate, against galactosamine-induced toxicity of liver cell, the experiment was performed in the same manner as in Experimental example 1, except that the compound concentrations tested were 1, 10, 50, 100 and 200 μM.

in vivo = details: mouse, in vivo, ip
Experimental: (§6) Administering 2-oxoasiatic acid of various concentrations to male ICR mice weighing between 20~25 g by peritoneal injection, the toxicity of 2oxoasiatic acid was tested.

male ICR mice = assay: Safety study through toxicity test in mice by peritoneal injection
Experimental: as §6

[4] = system: liver cell (carbon tetrachloride-induced toxicity); assay: Concentration dependency of protection effect of liver cell against carbon tetrachloride-induced toxicity; type: cell-based, male Wister rats
Experimental: as §1, §2, §3, §4
To investigate the concentration dependency of the protection effect of the compounds of the formula 1 of this invention, i. e. 2-oxoasiatic acid, against carbon tetrachloride-induced toxicity of liver cell, the experiment was performed in the same manner as in Experimental example 2, except that the compound concentrations tested were 1, 10, 50, 100 and 200 μM.

[5] = 5 μg/ml of compound concentration
[6] = 50 μg/ml of compound concentration

Row | Compound | Relative liver cell protection (%) [1, 5] [%] | Relative liver cell protection (%) [1, 6] [%] | Relative liver cell protection (%) [2, 5] [%] | Relative liver cell protection (%) [2, 6] [%] | concentration dependency of protection effect ([3]; 100 and 200 μM) | concentration dependency of protection effect ([3]; range of 1~50 μM) | Relative liver cell protection at 5 µg/mL [1, 5] [%] | Relative liver cell protection at 50 µg/mL [1, 6] [%] | Relative liver cell protection (%) at 5 µg/mL [2, 5] [%] | Relative liver cell protection (%) at 50 µg/mL [2, 6] [%] | also measured
1 | 2-methylasiatic acid | 29 | 9 | 43 | 62 | the protection effects of them rapidly decreased | the greater were the protection effects |  |  |  |  | Relative liver cell protection (%) ([3]; compound 1 μM): 31.9%; Relative liver cell protection (%) ([3]; compound 10 μM): 40.3%; Relative liver cell protection (%) ([3]; compound 50 μM): 58.2%; Relative liver cell protection (%) ([3]; compound 100 μM): 43.9%; Relative liver cell protection (%) ([3]; compound 200 μM): 0.0%
2 | methyl 2,3-β-epoxy-12-en-23-carbomethoxyurs-28-oate | 0 | 0 | 26 | 53 |  |  |  |  |  |  | 
3 | CCOCOC(=O)[C@]12CC[C@@H](C)[C@H](C)[C@H]1C1=CC[C@@H]3[C@@]4(C)C[C@@H](O)[C@@H]5OC(C)(C)OC[C@@]5(C)[C@@H]4CC[C@@]3(C)[C@]1(C)CC2 [ethoxymethyl 2α-hydroxy-3β,23-isopropylidendioxyurs-12-en-28-oate] |  |  |  |  |  |  | 15 | 5 | 66 | 45 | 
4 | CC(=O)OC[C@@]1(C)[C@@H]2CC[C@]3(C)[C@H](CC=C4[C@@H]5[C@@H](C)[C@H](C)CC[C@]5(C(=O)OC5CCCCO5)CC[C@]43C)[C@@]2(C)CC[C@@H]1OC(C)=O (stereo partly drawn) [tetrahydropyranyl 3β,23-diacetoxyurs-12-en-28-oate] |  |  |  |  |  |  | 42 | 30 | 58 | 66 | 
5 | 2',3',4',6'-tetra-O-acetylglucosyl 2,3,23-tri-O-acetylurs-28-oate | 39 | 34 | 79 | 21 |  |  |  |  |  |  | 
6 | COC(=O)[C@]12CC[C@@H](C)[C@H](C)[C@H]1C1=CC[C@@H]3[C@@]4(C)C[C@@H](OC(C)=O)C(=O)[C@@](C)(C=O)[C@@H]4CC[C@@]3(C)[C@]1(C)CC2 [methyl 2α-acetoxyurs-12-en-23-al-3-on-28-oate] |  |  |  |  | the protection effects of them rapidly decreased | the greater were the protection effects | 21 | 0 | 42 | 80 | Relative liver cell protection (%) at 1 µM ([3]; compound 1 μM): 27.4%; Relative liver cell protection (%) at 10 µM ([3]; compound 10 μM): 39%; Relative liver cell protection (%) at 50 µM ([3]; compound 50 μM): 60%; Relative liver cell protection (%) at 100 µM ([3]; compound 100 μM): 33.1%; Relative liver cell protection (%) at 200 µM ([3]; compound 200 μM): 0%
7 | CCOC(C)OC(=O)[C@]12CC[C@@H](C)[C@H](C)[C@H]1C1=CC[C@@H]3[C@@]4(C)C[C@@H](O)[C@H](O)[C@@](C)(CO)[C@@H]4CC[C@@]3(C)[C@]1(C)CC2 (stereo partly shown) [1-Ethoxyethyl asiatate, 1-ethoxyethyl asiatate] |  |  |  |  |  |  | 8 | 7 | 66 | 0 | 
8 | C[C@H]1[C@H](C)CC[C@]2(C(=O)O)CC[C@]3(C)C(=CC[C@@H]4[C@@]5(C)CC(=O)[C@H](O)[C@@](C)(CO)[C@@H]5CC[C@]43C)[C@H]12 [2-Oxoasiatic acid, 2-oxoasiatic acid] |  |  |  |  | the protection effects of them rapidly decreased | the greater were the protection effects | 30 | 44 | 15 | 62 | LD50 (in vivo): 750 mg/kg; opisthotonus (male ICR mice; male ICR mice, peritoneal injection, fatal dose): opisthotonus was showed at a fatal dose; body weight of surviving mice (male ICR mice; mouse, in vivo): did not change; motor activity (male ICR mice; mouse, in vivo): motor activity was decreased dose-dependently; pilo-erection, tachypnea and convulsion (male ICR mice; mouse, in vivo): induced dose-dependently; recovery of surviving mice (male ICR mice; mouse, in vivo): rapid recovery; type of toxicity (male ICR mice; mouse, in vivo): typical toxicity of central nervous system; relative liver cell protection at 1 µM ([4]; Rattus norvegicus, compound 1 μM): 1.6%; relative liver cell protection at 10 µM ([4]; Rattus norvegicus, compound 10 μM): 5%; relative liver cell protection at 50 µM ([4]; Rattus norvegicus, compound 50 μM): 3.3%; relative liver cell protection at 100 µM ([4]; Rattus norvegicus, compound 100 μM): 30.9%; relative liver cell protection at 200 µM ([4]; Rattus norvegicus, compound 200 μM): 48.1%; concentration dependency of protection effect ([4]; concentration range of 1~200 μM): the greater was the protection effects; Relative liver cell protection (%) at 1 µM ([3]; compound 1 μM): 29.8%; Relative liver cell protection (%) at 10 µM ([3]; compound 10 μM): 43.2%; Relative liver cell protection (%) at 50 µM ([3]; compound 50 μM): 50.4%; Relative liver cell protection (%) at 100 µM ([3]; compound 100 μM): 25.3%; Relative liver cell protection (%) at 200 µM ([3]; compound 200 μM): 8.5%
9 | methyl 2,3-β-epoxy-12-en-23-benzamidours-28-oate | 0 | 23 | 38 | 40 |  |  |  |  |  |  | 
